Where two headings read alike, the source gives them in different places. Square brackets hold non-standard residues; d marks the D form. Peptide text beside a SMILES is read from it. * marks the point of attachment. Cbz = O=C(OCc1ccccc1)*
Assays:
[1] = tested on: KMS11 multiple myeloma cells; assay: [3H]thymidine incorporation assay in KMS11; assay type: cell-based, human; details: read-out: IC50 [H^3] thymidine incorporation assay in KMS11
Procedure: Cultures of multiple myeloma cells and treatments with Z-DTPs were carried out as described in Example 8 (see below). The effects of Z-DTPs on the survival/proliferation of multiple myeloma cells were evaluated by the use of [^3H]thymidine) incorporation assays, performed as also described in Example 8. The amount of cell proliferation measured with each of the Z-DTPs' concentrations used and with the untreated cultures (i.e. cultures incubated with medium alone), was expressed as counts per minute (c.p.m.)—which directly correlate with the extent of cell proliferation. All experiments were performed in triplicate.
In these latter assays, the effects of Z-DTPs, Ac-DTPs and Z-LTPs on the survival/proliferation of tumour cell lines was investigated by measuring DNA synthesis using standard tritiated thymidine ([^3H]thymidine; [^3H]-TdR) uptake assays. In the analyses shown, cells were incubated for 24, 72, 120 or 144 hrs at 37° C. in the presence or absence of control or bioactive tetrapeptides, as indicated, then subjected to an additional incubation for 18 hrs with [^3H]-TdR (0.037 MBq/well, equivalent to […]). Cells were subsequently harvested onto glass fibre filter mats using a 96-well plate automated cell harvester, after which scintillation fluid was added, and [^3H]thymidine incorporation measured by liquid scintillation spectroscopy on a beta counter. The results are expressed as the percentages of the counts per minute (c.p.m.) (directly correlating with the extent of cell proliferation) measured with tetrapeptide-treated cultures relative to the c.p.m. measured with the corresponding cultures incubated with medium alone (untreated cells). All experiments were performed in triplicate.

[2] = tested on: KMS12 multiple myeloma cells; assay: [3H]thymidine incorporation assay in KMS12; assay type: cell-based, human; details: read-out: IC50 [H^3] thymidine incorporation assay in KMS12
Procedure: In these latter assays, the effects of Z-DTPs, Ac-DTPs and Z-LTPs on the survival/proliferation of tumour cell lines was investigated by measuring DNA synthesis using standard tritiated thymidine ([^3H]thymidine; [^3H]-TdR) uptake assays. In the analyses shown, cells were incubated for 24, 72, 120 or 144 hrs at 37° C. in the presence or absence of control or bioactive tetrapeptides, as indicated, then subjected to an additional incubation for 18 hrs with [^3H]-TdR (0.037 MBq/well, equivalent to 0.5 μCi/well). Cells were subsequently harvested onto glass fibre filter mats using a 96-well plate automated cell harvester, after which scintillation fluid was added, and [^3H]thymidine incorporation measured by liquid scintillation spectroscopy on a beta counter. The results are expressed as the percentages of the counts per minute (c.p.m.) (directly correlating with the extent of cell proliferation) measured with tetrapeptide-treated cultures relative to the c.p.m. measured with the corresponding cultures incubated with medium alone (untreated cells). All experiments were performed in triplicate.

Gadd45β/MKK7 interaction = target: T1, Gadd45β/MKK7 interaction (Homo sapiens, UniProt O14733); assay: Co-immunoprecipitation assay, lysates of HEK-293 cells expressing HA-Gadd45β and FLAG-MKK7; assay type: binding; details: 1 or 5 nM peptide
T1 construct: The GST-fused full-length kinase was coated for 16 h at 4° C., at a concentration of 42 nM; made in house
T1 sequence (O14733 1-419): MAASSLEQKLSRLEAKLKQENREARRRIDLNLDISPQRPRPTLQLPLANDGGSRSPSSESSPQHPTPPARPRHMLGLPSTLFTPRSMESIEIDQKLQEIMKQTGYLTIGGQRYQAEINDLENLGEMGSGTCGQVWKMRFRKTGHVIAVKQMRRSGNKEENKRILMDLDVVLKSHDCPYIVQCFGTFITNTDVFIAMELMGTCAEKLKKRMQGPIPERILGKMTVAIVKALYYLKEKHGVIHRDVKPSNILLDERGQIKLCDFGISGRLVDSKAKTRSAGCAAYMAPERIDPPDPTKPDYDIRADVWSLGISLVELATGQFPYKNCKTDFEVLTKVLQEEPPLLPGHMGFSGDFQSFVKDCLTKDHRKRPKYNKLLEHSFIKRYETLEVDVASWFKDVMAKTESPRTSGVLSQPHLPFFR
Procedure: Human Embryonic Kidney (HEK-293) were cultured in Dulbecco's modified Eagle's medium (DMEM) supplemented with 10% fetal calf serum (FCS), 100 units/ml penicillin, […] streptomycin, and 1% glutamine. HEK-293 cells (2.2×10^6) were seeded onto 10 cm^2 tissue-culture dishes, and the following day, were transfected with pcDNA-FLAG-MKK7 and pcDNA-HA-Gadd45β plasmids, using a standard Ca3(PO4)2 precipitation technique (Papa, S et al., (2004) Nat. Cell Biol. 6, 146-153). Forty-eight hours after transfection, the cells were washed once with PBS, then resuspended and incubated for 30 min at 4° C. in lysis buffer (20 mM HEPES, 350 mM NaCl, 20% glycerol, 1 mM MgCl2, 0.2 mM EGTA, 1 mM DTT, 1 mM Na3VO4, and 50 mM NaF) supplemented with protease inhibitors (1 mM phenylmethylsulfonylfluoride, 10 μM chymostatin, 2 μg/ml aprotinin, and 2 μg/ml leupeptin) with occasional gentle shaking. The lysed cells were collected and then centrifuged at 45,000×g for 40 min. The resulting cleared cell lysates were used for further analysis.
Immunoprecipitations were performed using essentially the same conditions described in Papa, S et al., (2004) Nat. Cell Biol. 6, 146-153 and the references therein, and an anti-FLAG antibody which precipitated FLAG-tagged MKK7. […]

Row | SMILES | IC50 ([1]; Day 1, listed as Z-DTP2) | IC50 ([1]; Day 1) | IC50 ([1]; Day 3) | IC50 ([1]; Day 6) | IC50 ([2]; Day 1) | IC50 ([2]; Day 3, listed as Z-DTP2) | IC50 ([2]; Day 3) | IC50 ([2]; Day 6) | IC50 ([1]; Day 6, listed as mDTP3) | IC50 ([2]; Day 6, listed as mDTP3) | disruption of the Gadd45β/MKK7 interaction in co-immunoprecipitation (Gadd45β/MKK7 interaction)
1 | N=C(N)NCCC[C@@H](NC(=O)[C@@H](CCC(=O)O)NC(=O)[C@@H](Cc1ccc(O)cc1)NC(=O)OCc1ccccc1)C(=O)N[C@H](Cc1ccccc1)C(N)=O [Compound 9, Z-D-Tyr-D-Glu-D-Arg-D-Phe-NH2] (Cbz-[dY][dE][dR][dF]-NH2) | 2.88 µM | 2.9 µM | 0.0257 µM | 0.066 µM | 1.3 µM | 0.144 µM | 0.141 µM | 0.066 µM | – | – | –
2 | CC(=O)N[C@H](Cc1ccc(O)cc1)C(=O)N[C@H](CCCNC(=N)N)C(=O)N[C@H](Cc1ccccc1)C(N)=O [Compound 17, Ac-D-Tyr-D-Arg-D-Phe-NH2] (Ac-[dY]-[dR]-[dF]-NH2) | – | 1 µM | – | 0.025 µM | 0.354 µM | – | 0.081 µM | 0.016 µM | 0.016 µM | 0.025 µM | –
3 | CC(=O)N[C@H](Cc1ccc(O)cc1)C(=O)N[C@H](CC(=O)O)C(=O)N[C@H](Cc1c[nH]cn1)C(=O)N[C@H](Cc1ccccc1)C(N)=O [DTP1, Acetyl-(D-Tyr)-(D-Asp)-(D-His)-(D-Phe)-NH2] (Ac-[dY][dD][dH][dF]-NH2) | – | – | – | – | – | – | – | – | – | – | no or very little Gadd45β
4 | CC(=O)N[C@H](Cc1ccc(O)cc1)C(=O)N[C@H](CCC(=O)O)C(=O)N[C@H](CCCNC(=N)N)C(=O)N[C@H](Cc1ccccc1)C(N)=O [DTP2, Acetyl-(D-Tyr)-(D-Glu)-(D-Arg)-(D-Phe)-NH2] (Ac-[dY][dE][dR][dF]-NH2) | – | – | – | – | – | – | – | – | – | – | no or very little Gadd45β

— US8993717B2, “Gadd45beta targeting agents” (Imperial Innovations Limited, priority 2009, dated 2015)
